Assay results taken from patent US20100190151A1 (priority 2003, published 2010).

What follows are molecules tested on DNA polymerase. Details: surface-anchored primer/template DNA, stepwise reactions, FIG. 2(b); Cy5-dCTP detected by spFRET with Cy3-dUTP.
Experimental: FIG. 2a(1) is an image of the slide surface: Annealed primer/template DNA molecules detected by Cy3 fluorescence from the labeled primer. Scale bar, 10 µm. […] FIG. 2a(3) is an image of the slide surface: Labeled nucleotide fluorescence after successful incorporation by DNA polymerase. Note; prior to the incorporation reaction, the primer fluorescence shown in FIG. 2a(1) was photo-bleached. After incubation of template DNA molecules with DNA polymerase and a labeled dNTP, the sequencing chamber was flushed to prevent fluorescent detection of unincorporated labeled dNTPs. […] FIG. 2a(5) is an overlay of the primer/template positions with the labeled nucleotide positions.
Observations of single-molecule fluorescence can be made using a conventional microscope equipped with total internal reflection (TIR) illumination. […] First, the surface of a quartz slide is chemically treated to specifically anchor template nucleic acid molecules while preventing non-specific binding of labeled dNTPs present in the sequencing reaction. A plastic flow cell is then attached to the surface of the slide to facilitate the exchange of buffers and reagents. Next, biotinylated oligonucleotides, serving as sequencing templates, are annealed to a fluorescently labeled primer. Template nucleic acid molecules are bound to the slide surface via streptavidin and biotin at a surface density low enough to resolve single nucleic acid molecules. The primed templates are detected via their fluorescent tags and their locations are recorded for future reference. After noting the location of each template nucleic acid molecule, their fluorescent tags are photo-bleached. Labeled dNTPs and polymerase (or polymerizing agent) are then washed in and out of the flow cell, one dNTP at a time, while the known locations of the template nucleic acid molecules are monitored for fluorescence, an indication that the primer annealed to the template nucleic acid molecule had been extended by one labeled nucleotide.

Molecule	incorporation of labeled dNTP by DNA polymerase (selectivity and fidelity)
Cy5-dCTP	correctly incorporated
Cy3-dUTP	correctly incorporated
Cy5-dUTP	correctly refusing to incorporate
CCN1/C(=C/C=C/C2=[N+](CCCCCC(=O)NCC#Cc3cn(C4CC(O)C(COP(=O)([O-])OP(=O)([O-])OP(=O)([O-])[O-])O4)c(=O)nc3N)c3cc(S(=O)(=O)O)ccc3C2(C)C)C(C)(C)c2ccc(S(=O)(=O)[O-])cc21.[Li+].[Li+].[Li+].[Li+] (stereo not shown) [Cy3-dCTP]	correctly refusing to incorporate
